US20210069223A1, “USE OF COMPOUND FOR PREVENTING AND/OR TREATING OBESITY” (TCI CO., LTD., priority 2019, published 2021)

Test system: bone marrow stromal cells of mice (ATCC CRL-2749) differentiated into adipocytes
Assay: Promoting lipolysis: glycerol outside the cells measured by glycerol assay kit in adipocytes differentiated from bone marrow stromal cells
Format: cell-based
Details: cultured at 37° C. for 7 days, OD 540 nm, FIG. 12; for lipolysis promoted in comparison with the control group: 10 μg compound per mL in the well
Method: According to the present embodiment, bone marrow stromal cells of mice were used for testing the efficacy of the compound TC-CA-01, the compound TCI-CA-02, the compound TC-CA-03, the compound TCI-CA-04, and the compound TCI-CA-05 for prompting lipolysis. The bone marrow stromal cells of mice were purchased from American Type Culture Collection (American ATCC®), and the No. was CRL-2749M. Before differentiation, the cells were cultured in a pre-adipocyte expansion medium, including 90 vol % of an α-MEM (Minimum Essential Medium Eagle-Alpha Modification, purchased from Gibco, No. 11095080, America) cell culture medium, and 10 vol % of fetal bovine serum (purchased from Gibco, No. 10437-028, America). In addition, 1.0 vol % of penicillin-streptomycin (purchased from Gibco, No. 15140122, America) was added. A differentiation medium was used for differentiating the bone marrow stromal cells of mice, and included 90 vol % of α-MEM cell culture medium, and 10 vol % of fetal bovine serum. In addition, 1.0 vol % of penicillin-streptomycin was added.
The bone marrow stromal cells of mice were inoculated in a culture tray by 8×10^4 cells/0.5 mL of the above pre-adipocyte expansion medium in each well. Culture was performed at 37° C. for 7 days. The culture medium in each well was replaced by the above mentioned fresh differentiation medium once every 3 days during the period. After 7 days, a microscope was used to observe and confirm that the lipid droplets have formed so as to ensure the cells completely differentiated into adipocytes. […]
Then, a value of glycerol outside the cells was measured by a glycerol assay kit (purchased from Cayman Chemical, No. 10011725, America). […] This kit quantified the value of glycerol outside the cells by measuring the content of a product of a coupling enzyme reaction system capable of generating a bright purple, and used a glycerol standard in the kit to build a standard curve so as to reckon the value of the glycerol outside the cells of a sample. […]

SMILES | lipolysis promoted in comparison with the control group [%] | efficacy for promoting lipolysis in comparison with the control group (result in words) (10 μg of each compound per mL in the well)
O=C1CC(c2ccc(O)cc2)Oc2cc(O)cc(O)c21 (stereo not drawn) [TCI-CA-03, 5,7-Dihydroxy-2-(4-hydroxyphenyl) chroman-4-one] | 15 | 
COc1cc(/C=C/C(=O)O)ccc1O [TCI-CA-01, 4-hydroxy-3-methoxycinnamic acid] |  | effectively promoted
C[C@@H]1O[C@@H](O[C@H]2[C@H](Oc3cc(O)c4c(c3)O[C@H](c3ccc(O)cc3)CC4=O)O[C@H](CO)[C@@H](O)[C@@H]2O)[C@H](O)[C@H](O)[C@H]1O [TCI-CA-02] | 8 | 
